Test results from US9521847B2, “Synergistic weed control from applications of pyridine carboxylic acid herbicides and synthetic auxin herbicides and/or auxin transport inhibitors” (Dow AgroSciences LLC, priority 2014, dated 2016).
Like-named read-outs stand apart in the source and are kept apart here.

What was measured:
[1] = test system: grain sorghum (Sorghum vulgare, SORVU); assay: Greenhouse postemergence trial, % visual injury; type: in vivo
[2] = test system: common chickweed (Stellaria media, STEME); assay: Greenhouse postemergence trial, % visual injury; type: in vivo
[3] = test system: sunflower (Helianthus annus, HELAN); assay: Greenhouse postemergence trial, % visual injury; type: in vivo; conditions: 140 g ae/ha alone; 20-22 d
[4] = test system: wild pansy (Viola tricolor, VIOTR); assay: Greenhouse postemergence trial, % visual injury
[5] = test system: Canadian thistle (CIRAR, Cirsium arvense); assay: Greenhouse postemergence trial, % visual injury; conditions: Cirsium arvense, post-emergence;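 also: plants sprayed at second to third true leaf stage, injury scored visually 20-22 d later against solvent-blank sprayed controls, 0 meaning no injury and 100 complete kill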
[6] = test system: MALPU = Malva pusilla (mallow); assay: Small plot field trial (Canada), % visual injury; type: in vivo; conditions: 560 g ae/ha alone, 26-33 DAA
Description: Trials were established as randomized complete blocks with 3-4 replicates. Individual plots were 2-3 meters (m) wide and 8-10 m long. Applications were made with backpack or tractor-mounted sprayers delivering a spray volume output of 100 liters per hectare (L/ha) using pressurized carbon dioxide (CO2) as a propellant. Compound 7 was combined with 2,4 D EHE (660 g ae/L EC formulation) and applied to spring wheat (TRZAS), and the phytotoxicity of the herbicidal compositions was measured. In addition, the efficacy of the herbicidal composition on Canadian thistle ([…], Cirsium arvense), […] scoparia), mallow ([…] pusilla), wild buckwheat (POLCO, Polygonum convolvulus), and lady's thumb (POLPE, Polygonum persicaria) was evaluated.

[7] = test system: maize (ZEAMX); conditions: in vivo
[8] = test system: pigweed (AMARE, Amaranthus retroflexus); assay: Greenhouse postemergence trial, % visual injury; type: in vivo; conditions: for % visual injury, Obs: AMARE
[9] = test system: Russian thistle (Salsola iberica, SASKR); assay: Greenhouse postemergence trial, % visual injury; type: in vivo
[10] = test system: common lambsquarters (CHEAL, Chenopodium album L.); assay: Greenhouse postemergence trial, % visual injury; type: in vivo; conditions: Chenopodium album, post-emergence; 140 g ae/ha alone; 20-22 d; read-out: % visual injury Obs
[11] = test system: ivyleaf morningglory (Ipomoea hederacea, IPOHE); assay: Greenhouse postemergence trial, % visual injury; conditions: Ipomoea, post-emergence, read-out: % visual injury, Obs, IPOHE, 140 g ae/ha
[12] = test system: spring rape (Brassica napus, BRSNN); assay: Greenhouse postemergence trial, % visual injury; conditions: Brassica napus, post-emergence
[13] = test system: spring barley (HORVS); conditions: in vivo
[14] = test system: wild mustard (Sinapis arvensis, SINAR); assay: Greenhouse postemergence trial, % visual injury; type: in vivo
[15] = test system: kochia (KCHSC, Kochia scoparia); assay: Greenhouse postemergence trial, % visual injury; type: in vivo
Description: Following the protocol in Example 1, compound 1 and compound 2 were combined with 2,4 D EHE (EC) and applied to kochia (KCHSC, Kochia scoparia) and the phytotoxicity of the herbicidal compositions was measured.
Following the protocol in Example 1, compound 1 (EC) and Compound 2 (SC) were combined with diflufenzopyr and applied to kochia (Kochia scoparia, KCHSC) and the phytotoxicity of the herbicidal composition was measured.

[16] = test system: winter rape (BRSNW, Brassica napus); assay: Greenhouse postemergence trial, % visual injury; type: in vivo
[17] = test system: common rice (ORYSA); conditions: in vivo
[18] = test system: velvetleaf (Abutilon theophrasti, ABUTH); assay: Greenhouse postemergence trial, % visual injury; type: in vivo; conditions: 140 g ae/ha alone; 20-22 d
[19] = test system: poinsettia (Euphorbia heterophylla, EPHHL); assay: Greenhouse postemergence trial, % visual injury; conditions: for pest or weed control at 140 g/ha: Euphorbia heterophylla, post-emergence
[20] = test system: nutsedge (Cyperus esculentus, CYPES); assay: Greenhouse postemergence trial, % visual injury; type: in vivo
[21] = test system: wild buckwheat (Polygonum convolvulus, POLCO); assay: Greenhouse postemergence trial, % visual injury; type: in vivo
[22] = read-out: % visual injury (Obs)
[23] = Hordeum vulgare (spring barley)

## CCCCC(CC)COC(=O)COc1ccc(Cl)cc1Cl (stereo not drawn) [2,4-D EHE, 2-ethylhexyl (2,4-dichlorophenoxy)acetate, reference compound]
[1]; 2,4-D EHE 140 g ae/ha
  % visual injury (Obs): 0%
[1]; 140 g ae/ha alone, 20-22 d
  % visual injury Obs: 0%
[2]; 2,4-D EHE 400 g ae/ha
  % visual injury (Obs): 10%
[2]; 140 g ae/ha alone, 20-22 d
  % visual injury Obs: 63%
[3]
  % visual injury Obs: 75%
[4]; 2,4-D EHE 140 g ae/ha
  % visual injury (Obs): 35%
[4]; 2,4-D EHE 400 g ae/ha
  % visual injury (Obs): 65%
[4]; Viola tricolor, post-emergence, read-out: % visual injury Obs
  pest or weed control at 140 g/ha: 35%
[5]; [22]
  pest or weed control at 140 g/ha: 50%
  pest or weed control at 400 g/ha: 70%
[5]; read-out: % visual injury Obs
  pest or weed control at 140 g/ha: 50%
  pest or weed control at 280 g/ha: 73%
[6]
  % visual injury Obs: 74%
[7]; Zea mays (maize)
  % visual injury Obs: 0%
[7]; maize (Zea mays)
  % visual injury (Obs): 0%
  % visual injury, Obs: 0%
[8]; 140 g ae/ha
  % visual injury, Obs: 75%
[8]; 400 g ae/ha
  % visual injury, Obs: 80%
[8]; Amaranthus retroflexus, post-emergence, 140 g ae/ha alone, 20-22 d, read-out: % visual injury Obs
  pest or weed control at 140 g/ha: 95%
[8]; Amaranthus retroflexus, post-emergence, 280 g ae/ha alone, 20-22 d, read-out: % visual injury Obs
  pest or weed control at 280 g/ha: 30%
[9]; 2,4-D EHE 400 g ae/ha
  % visual injury (Obs): 70%
[9]; SASKR, 400 g ae/ha
  % visual injury, Obs: 70%
[10]
  pest or weed control at 140 g/ha: 73%
[11]
  pest or weed control at 140 g/ha: 93%
[12]; [22]
  plant injury at 140 g/ha: 60%
  plant injury at 400 g/ha: 75%
[12]; read-out: % visual injury Obs
  plant injury at 140 g/ha: 60%
[12]; read-out: % visual injury, Obs
  plant injury at 140 g/ha: 65%
[13]; [23]
  % visual injury (Obs): 0%
  % visual injury Obs: 0%
[13]; spring barley (Hordeum vulgare)
  % visual injury (Obs): 10%
[14]; 2,4-D EHE 400 g ae/ha
  % visual injury (Obs): 97%
[14]; SINAR, 400 g ae/ha
  % visual injury, Obs: 97%
[15]; 2,4-D EHE 400 g ae/ha
  % visual injury (Obs): 10%
[15]; 280 g ae/ha alone, 20-22 d
  % visual injury Obs: 10%
[15]; Bassia scoparia, post-emergence, KCHSC, 400 g ae/ha, read-out: % visual injury, Obs
  pest or weed control at 400 g/ha: 50%
[16]; 2,4-D EHE 400 g ae/ha
  % visual injury (Obs): 93%
[16]; 280 g ae/ha alone, 20-22 d
  % visual injury Obs: 85%
[16]; BRSNW, 400 g ae/ha
  % visual injury, Obs: 93%
[17]
  % visual injury (Obs): 0%
  % visual injury, Obs: 10%
[18]
  % visual injury Obs: 55%
[19]; 2,4-D EHE 400 g ae/ha
  % visual injury (Obs): 60%
[19]; read-out: % visual injury Obs, 140 g ae/ha alone, 20-22 d
  pest or weed control at 140 g/ha: 35%
[19]; read-out: % visual injury, Obs, EPHHL, 140 g ae/ha
  pest or weed control at 140 g/ha: 5%
[20]; 2,4-D EHE 140 g ae/ha
  % visual injury (Obs): 0%
[20]; CYPES, 140 g ae/ha
  % visual injury, Obs: 10%
[20]; Cyperus, post-emergence, 140 g ae/ha alone, 20-22 d, read-out: % visual injury Obs
  pest or weed control at 140 g/ha: 0%
[21]; 2,4-D EHE 400 g ae/ha
  % visual injury (Obs): 80%
[21]; 2,4-D EHE 420 g ae/ha
  % visual injury (Obs): 60%
[21]; 140 g ae/ha alone, 20-22 d
  % visual injury Obs: 55%
